Test results: PubChem BioAssay AID1963985 (Molecular Pharmacology Branch, DTP, NCI, 2024)

Test system: 252836-082-R-J2-PDC tumor spheroids, viability
Assay: Anticancer human tumor 252836-082-R-J2-PDC patient-derived head and neck squamous cell carcinoma cell line growth inhibition [PI3K]
Details: spheroids with HUVEC and MSC; for viability, T/C: stronger effect = lower value
Source text: Combinatorial screen of targeted agents with the PI3K inhibitors inavolisib, alpelisib, duvelisib, and copanlisib in multi-cell type tumor spheroids
A high-throughput screen of multi-cell type tumor spheroids was designed to identify active combinations of targeted small molecules and PI3K pathway inhibitors. Complex spheroids include a stromal component modeled by human endothelial cells (HUVEC) and fibroblasts modeled by human mesenchymal stem cells (MSCs). The concentration ranges selected for each drug and investigational agent were based upon clinically achievable concentrations if the clinical Cmax of the agent was known.
Compounds. The drugs and investigational agents: inavolisib (NSC800729), alpelisib (NSC765974), duvelisib (NSC772469), copanlisib (NSC816437), ipatasertib (NSC767898), afuresertib (NSC778305), talazoparib (NSC767125), sapanisertib (NSC764658), selumetinib (NSC741078), tovorafenib (DAY101, NSC766906), vemurafenib (NSC761431), ravoxertinib (NSC781343), sotorasib (NSC818433), MRTX1133 (NSC 836407), abemaciclib (NSC 768073), palbociclib (NSC758247), venetoclax (NSC 766270), SY5609 (NSC837396), enzalutamide (NSC755605), and darolutamide (NSC825331), were obtained from the National Cancer Institute (NCI) Developmental Therapeutics Program Chemical Repository. The FDA-approved anticancer drug set is available from the NCI Developmental Therapeutics Program. […] The stock solutions were prepared in dimethyl sulfoxide (DMSO, Sigma-Aldrich, St. Louis, MO, cat. D2650) at 800-fold the tested concentration and stored at -70 degrees C prior to their use. All drugs and investigational agents were tested over a range starting from a high concentration at or near the clinical Cmax and decreasing in half-log increments. If the clinical Cmax for an agent had not been determined, the highest concentration tested was 10 microM.
Cell Culture. All cells were maintained in an incubator at 37 degrees C and 5% CO2 with 95% humidity. The PDC lines were cultured according to standard operating procedures established by the NCI PDMR (https://pdmr.cancer.gov/sops/default.htm). All PDCs were thawed and cultured in Matrigel-coated flasks prepared with a working solution of 1X Ham's F-12 nutrient mix, without supplementation (Invitrogen, Waltham, MA, cat. 11765054), 100 U/mL penicillin-streptomycin (Invitrogen, cat. 15140122), and 2.5% Matrigel (Corning Inc., Corning, NY, cat. 354248) for the first three passages. The 354836-022-R-J1-PDC, 475296-252-R-J1-PDC, and 997726-040-R-J2-PDC lines were cultured in 6A media, which includes advanced DMEM/F-12 (Thermo Fisher Scientific, cat. 12634028), 10 mM HEPES (Thermo Fisher Scientific, cat. 15630080), 1X GlutaMAX supplement (Thermo Fisher Scientific, cat. 35050061), 0.1 mg/mL primocin (InvivoGen, San Diego, CA, cat. ant-pm-2), 10% defined fetal bovine serum, heat inactivated (HyClone Laboratories Inc., Logan, UT, cat. SH30070.03HI), 50% L-WRN conditioned media (ATCC, cat. CRL-3276), 1.25 mM N-Acetyl-L-cysteine (Sigma-Aldrich, cat. A9165), 10 mM nicotinamide (Sigma-Aldrich, cat. N0636), 1X B-27 supplement (Thermo Fisher Scientific, cat. 17504044), 1X N-2 supplement (Thermo Fisher Scientific, cat. 17502048), and 10 microM Y-27632 dihydrochloride (Tocris Bioscience, Bristol, United Kingdom, cat. 1254). The 624824-186-R-J2-PDC line was cultured in 6C/Colon 1B media, which includes all 6A media components plus 50 ng/mL human EGF recombinant protein (Thermo Fisher Scientific, cat. PHG0311). […]
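Further: spheroids exposed to agents for seven days before readout.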
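Wherever viability, T/C is given: percent of vehicle DMSO control viability so 100% = untreated growth.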

## Cn1cnc2c(F)c(Nc3ccc(Br)cc3Cl)c(C(=O)NOCCO)cc21 + COc1c(OCCCN2CCOCC2)ccc2c3n(c(=NC(=O)c4cnc(N)nc4)nc12)CCN3
Curve of first compound, second compound 0.00316 µM
  IC50: 2050 nM
Curve of first compound, second compound 0.01 µM
  IC50: 1070 nM
Curve of first compound, second compound 0.0316 µM
  IC50: 78.4 nM
Curve of first compound, second compound 0.1 µM
  IC50: < 9.49 nM
Curve of first compound, second compound 0.316 µM
  IC50: < 9.49 nM
Curve of first compound, second compound 1 µM
  IC50: < 9.49 nM
Second compound 0.00316 µM, first compound 0.00949 µM
  viability, T/C: 91.6%
Second compound 0.00316 µM, first compound 0.03 µM
  viability, T/C: 71.5%
Second compound 0.00316 µM, first compound 0.0949 µM
  viability, T/C: 82.4%
Second compound 0.00316 µM, first compound 0.3 µM
  viability, T/C: 80.4%
Second compound 0.00316 µM, first compound 0.949 µM
  viability, T/C: 75.3%
Second compound 0.00316 µM, first compound 3 µM
  viability, T/C: 37.5%
Second compound 0.01 µM, first compound 0.00949 µM
  viability, T/C: 73.5%
Second compound 0.01 µM, first compound 0.03 µM
  viability, T/C: 70.3%
Second compound 0.01 µM, first compound 0.0949 µM
  viability, T/C: 76.7%
Second compound 0.01 µM, first compound 0.3 µM
  viability, T/C: 65.2%
Second compound 0.01 µM, first compound 0.949 µM
  viability, T/C: 52.1%
Second compound 0.01 µM, first compound 3 µM
  viability, T/C: 35.5%
Second compound 0.0316 µM, first compound 0.00949 µM
  viability, T/C: 59.6%
Second compound 0.0316 µM, first compound 0.03 µM
  viability, T/C: 48.8%
Second compound 0.0316 µM, first compound 0.0949 µM
  viability, T/C: 49%
Second compound 0.0316 µM, first compound 0.3 µM
  viability, T/C: 46.2%
Second compound 0.0316 µM, first compound 0.949 µM
  viability, T/C: 34.1%
Second compound 0.0316 µM, first compound 3 µM
  viability, T/C: 25.1%
Second compound 0.1 µM, first compound 0.00949 µM
  viability, T/C: 31.6%
Second compound 0.1 µM, first compound 0.03 µM
  viability, T/C: 33.3%
Second compound 0.1 µM, first compound 0.0949 µM
  viability, T/C: 33.1%
Second compound 0.1 µM, first compound 0.3 µM
  viability, T/C: 29.5%
Second compound 0.1 µM, first compound 0.949 µM
  viability, T/C: 18%
Second compound 0.1 µM, first compound 3 µM
  viability, T/C: 7.77%
Second compound 0.316 µM, first compound 0.00949 µM
  viability, T/C: 14.8%
Second compound 0.316 µM, first compound 0.03 µM
  viability, T/C: 12.2%
Second compound 0.316 µM, first compound 0.0949 µM
  viability, T/C: 9.2%
Second compound 0.316 µM, first compound 0.3 µM
  viability, T/C: 7.79%
Second compound 0.316 µM, first compound 0.949 µM
  viability, T/C: 3.35%
Second compound 0.316 µM, first compound 3 µM
  viability, T/C: 0.38%
Second compound 1 µM, first compound 0.00949 µM
  viability, T/C: 2.53%
Second compound 1 µM, first compound 0.03 µM
  viability, T/C: 2.17%
Second compound 1 µM, first compound 0.0949 µM
  viability, T/C: 2.32%
Second compound 1 µM, first compound 0.3 µM
  viability, T/C: 0.64%
Second compound 1 µM, first compound 0.949 µM
  viability, T/C: 3.69%
Second compound 1 µM, first compound 3 µM
  viability, T/C: 0.18%

## COc1c(OCCCN2CCOCC2)ccc2c3n(c(=NC(=O)c4cnc(N)nc4)nc12)CCN3
Compound 0.00316 µM
  viability, T/C: 96.6% [middle of 8 runs]
Compound 0.01 µM
  viability, T/C: 80.7% [middle of 8 runs]
Compound 0.0316 µM
  viability, T/C: 59.6% [middle of 8 runs]
Compound 0.1 µM
  viability, T/C: 36.6% [middle of 8 runs]
Compound 0.316 µM
  viability, T/C: 15.3% [middle of 7 runs]
Compound 1 µM
  viability, T/C: 4.26% [middle of 8 runs]
Compound alone, run of 06/13/2023
  IC50: 47.6 nM [middle of 8 runs]
